Where two headings read alike, the source gives them in different places. No end group written: not given here. *: point of attachment. Biotin = O=C1N[C@H]2[C@H](CS[C@H]2CCCCC(=O)*)N1
What was measured:
HL-60 cells = details: CXCL12 200 ng/mL, 24 h
Method: (§1) HL-60 and U937 cells were harvested in logarithmic growth phase and suspended in RPMI-1640 medium without FBS. 200 μL of the suspension containing 20×10^4 cells and aqueous solutions of E5 at different concentrations were added to the upper chamber of a trans well chamber (PET microporous filter membrane with a diameter of […] was used for HL-60, and PET microporous filter membrane with a diameter of 5 μm was used for U937) so that the final concentration of the polypeptide molecule was 0.1 μM, 1.0 μM, and 10 μM respectively, and an aqueous solution was added for use as a blank control. 800 μL of the RPMI-1640 medium without FBS was added to the lower chamber, along with adding aqueous solutions of CXCL12 at concentrations of 200 ng/mL and 50 ng/mL respectively to induce HL-60 and U937 cells. The culture plates were incubated in an incubator under 37° C., 5% CO2 for 24 h. The trans well chambers were removed and the number of the migrated cells in the lower chamber was calculated.

U937 cells = details: CXCL12 50 ng/mL, 24 h
Method: as §1

[1] = system: leukemia cells HL-60 and U937 cells; details: 24 h
Method: The effect of E5 polypeptide on the apoptosis of leukemia cells HL-60 and U937 cells was examined by FITC-Annexin V/PI (eBioscience, Australia) double-staining assay. HL-60 and U937 cells were harvested in logarithmic growth phase. The cell suspensions and E5 aqueous solutions at different concentrations were added to 24-well plates. After incubation for 24 h, the cells were collected and washed with PBS. FITC-Annexin V and PI were added after the cells were resuspended in a binding buffer (10 mM Hepes/NaOH, pH 7.4, 140 mM NaCl, 2.5 mM CaCl2). After incubating for 10 min at room temperature, 1.5×10^4 cells were analyzed by flow cytometer (Accuri C6, BD, USA).

[2] = system: NOD/SCID mice transplanted with HL-60 cells; details: 30 mg/kg subcutaneous, twice a week from day 20 after transplantation
Method: The 5-week-old female NOD/SCID mice (purchased from the Animal Experimental Center of the Institute of Basic Medical Science, Chinese Academy of Medical Sciences) cultured in a special sterile environment were used. Prior to the experiment, animals should be acclimated to the laboratory environment for 1 week. 1×10^6 HL-60 cells were suspended in 100 μL ethylene diamine tetracetic acid sodium (EDTA)/PBS and injected intravenously into NOD/SCID mice subjected to sub-lethal irradiation (250 cGy). […] From day 20 after transplantation, the mice were injected with E5 (30 mg/kg, n=9), cyclophosphamide (CTX, 36 mg/kg, n=9), or sterile water (n=8) respectively twice a week to observe the state and weight changes of the mice, wherein E5 and sterile water were injected into mice by subcutaneous injection and cyclophosphamide was injected into mice by intraperitoneal injection.

Biotin-GGRSFFLLRRIQGCRFRNTVDD [E5]
decrease of migration ability of HL-60 cells (longitudinal) (HL-60 cells; 0.1 μM): 35.00%
decrease of migration ability of HL-60 cells (longitudinal) (HL-60 cells; 1.0 μM): 39.00%
decrease of migration ability of HL-60 cells (longitudinal) (HL-60 cells; 10 μM): 64.00%
decrease of migration ability of U937 cells (longitudinal) (U937 cells; 0.1 μM): 17.00%
decrease of migration ability of U937 cells (longitudinal) (U937 cells; 1.0 μM): 23.00%
decrease of migration ability of U937 cells (longitudinal) (U937 cells; 10 μM): 20.00%
apoptosis rate of leukemia cells ([1]; 50 μM): 10%
apoptosis rate of leukemia cells ([1]; 80 μM): 22%
effect on apoptosis of leukemia cells HL-60 and U937 cells ([1]; concentration below 20 μM): negligible
apoptosis rate of leukemia cells ([1]; concentration higher than 20 μM): increased rapidly
survival time of mice versus cyclophosphamide group and control group [2]: longer survival time
weight of mice versus cyclophosphamide group and control group [2]: much higher
